In patent publication US8835409B2, “3-alkenyl-6-halo-4-aminopicolinates and their use as herbicides” (Dow AgroSciences, LLC., priority 2011, dated 2014):

Legend:
[1] = tested on: Triticum aestivum (spring wheat); experiment: Postemergence herbicidal activity, visual % control; assay type: in vivo; settings: post-emergence, 336 h, post-emergent, after 14 days, 0 = no injury, 100 = complete kill, read-out: % Control TRZAS; for plant injury at 280 g/ha: 280 g ai/ha; for plant injury at 140 g/ha: 140 g ai/ha
Method: (§1) Seeds or nutlets of the desired test plant species were planted in Sun Gro MetroMix® 306 planting mixture, which typically has a pH of 6.0 to 6.8 and an organic matter content of about 30 percent, in plastic pots with a surface area of 64 square centimeters. When required to ensure good germination and healthy plants, a fungicide treatment and/or other chemical or physical treatment was applied. The plants were grown for 7-21 days in a greenhouse with an approximate 15 hour photoperiod which was maintained at about 23-29° C. during the day and 22-28° C. during the night. Nutrients and water were added on a regular basis and supplemental lighting was provided with overhead metal halide 1000-Watt lamps as necessary. The plants were employed for testing when they reached the first or second true leaf stage.
(§2) A weighed amount, determined by the highest rate to be tested, of each test compound was placed in a 25 mL glass vial and was dissolved in 4 mL of a 97:3 v/v (volume/volume) mixture of acetone and dimethyl sulfoxide (DMSO) to obtain concentrated stock solutions. […] The concentrated stock solutions obtained were diluted with 20 mL of an aqueous mixture containing acetone, water, isopropyl alcohol, DMSO, Atplus 411F crop oil concentrate, and Triton® X-155 surfactant in a 48.5:39:10:1.5:1.0:0.02 v/v ratio to obtain spray solutions containing the highest application rates. Additional application rates were obtained by serial dilution of 12 mL of the high rate solution into a solution containing 2 mL of 97:3 (v/v) mixture of acetone and dimethyl sulfoxide (DMSO) and 10 mL of an aqueous mixture containing acetone, water, isopropyl alcohol, DMSO, Atplus 411F crop oil concentrate, and Triton X-155 surfactant in a 48.5:39:10:1.5:1.0:0.02 (v/v) ratio to obtain ½X, ¼X, ⅛X and 1/16X rates of the high rate. Compound requirements are based upon a 12 mL application volume at a rate of 187 L/ha. Formulated compounds were applied to the plant material with an overhead Mandel track sprayer equipped with a 8002E nozzles calibrated to deliver 187 L/ha over an application area of 0.503 square meters at a spray height of […] above the average plant canopy height. Control plants were sprayed in the same manner with the solvent blank.
(§3) The treated plants and control plants were placed in a greenhouse as described above and watered by sub-irrigation to prevent wash-off of the test compounds. After 14 days, the condition of the test plants as compared with that of the untreated plants was determined visually and scored on a scale of 0 to 100 percent where 0 corresponds to no injury and 100 corresponds to complete kill

[2] = tested on: Cirsium arvense (canada thistle); experiment: as above; assay type: in vivo; settings: post-emergence, 336 h, post-emergent, after 14 days, 0 = no injury, 100 = complete kill, read-out: % Control CIRAR; for pest or weed control at 280 g/ha: 280 g ai/ha; for pest or weed control at 140 g/ha: 140 g ai/ha
Method: as §1, §2, §3

[3] = tested on: Chenopodium album (lambsquarters); experiment: as above; assay type: in vivo; settings: post-emergence, 336 h, post-emergent, after 14 days, 0 = no injury, 100 = complete kill, read-out: % Control CHEAL; for pest or weed control at 280 g/ha: 280 g ai/ha; for pest or weed control at 140 g/ha: 140 g ai/ha
Method: as §1, §2, §3

[4] = tested on: Polygonum convolvulus (wild buckwheat); experiment: as above; assay type: in vivo; settings: Fallopia convolvulus, post-emergence, 336 h, post-emergent, after 14 days, 0 = no injury, 100 = complete kill, read-out: % Control POLCO; for pest or weed control at 280 g/ha: 280 g ai/ha; for pest or weed control at 140 g/ha: 140 g ai/ha
Method: as §1, §2, §3

[5] = tested on: Amaranthus retroflexus (pigweed); experiment: as above; assay type: in vivo; settings: post-emergence, 336 h, post-emergent, after 14 days, 0 = no injury, 100 = complete kill, read-out: % Control AMARE; for pest or weed control at 280 g/ha: 280 g ai/ha; for pest or weed control at 140 g/ha: 140 g ai/ha
Method: as §1, §2, §3

SMILES	melting point	plant injury at 280 g/ha [1] [%]	pest or weed control at 280 g/ha [2] [%]	pest or weed control at 280 g/ha [3] [%]	pest or weed control at 280 g/ha [4] [%]	pest or weed control at 280 g/ha [5] [%]	plant injury at 140 g/ha [1] [%]	pest or weed control at 140 g/ha [4] [%]	pest or weed control at 140 g/ha [2] [%]	pest or weed control at 140 g/ha [5] [%]	pest or weed control at 140 g/ha [3] [%]
C=Cc1c(N)cc(Cl)nc1C(=O)O [Compound 11, 4-amino-6-chloro-3-vinylpicolinic acid]	146 to 148 °C	50	10	100							
C=Cc1c(N)cc(Cl)nc1C(=O)OC [Compound 3, methyl 4-amino-6-chloro-3-vinylpicolinate]	53 to 54 °C	20	100	100	100	100					
COC(=O)c1nc(Cl)c(F)c(N)c1/C=C/[Si](C)(C)C [Compound 7, (E)-methyl 4-amino-6-chloro-5-fluoro-3-(2-(trimethylsilyl)vinyl)picolinate]	103 to 105 °C						0	50	55	90	100
C/C=C/c1c(C(=O)O)nc(Cl)c(F)c1N [Compound 13, (E)-4-amino-6-chloro-5-fluoro-3-(prop-1-en-l-yl)picolinic acid]	153 to 155 °C						30	60	70	60	85
COC(=O)c1nc(Cl)c(F)c(N)c1/C=C/Cl [Compound 8, (E)-methyl 4-amino-6-chloro-3-(2-chlorovinyl)-5-fluoropicolinate]	128 to 130 °C						0	60	70	90	90
C/C=C\c1c(C(=O)OC)nc(Cl)c(F)c1N [Compound 4, (Z)-methyl 4-amino-6-chloro-5-fluoro-3-(prop-1-en-1-yl)picolinate]							0	40	85	100	100
C/C=C/c1c(C(=O)OC)nc(Cl)c(F)c1N [Compound 5, (E)-methyl 4-amino-6-chloro-5-fluoro-3-(prop-1-en-1-yl)picolinate]	107 to 109 °C						0	20	65	0	90
C=Cc1c(C(=O)OC)nc(Cl)c(F)c1N [Compound 2, methyl 4-amino-6-chloro-5-fluoro-3-vinylpyridine-2-carboxylate]	99 to 100 °C						55		70	100	90
Nc1c(F)c(Cl)nc(C(=O)O)c1/C=C/Cl [Compound 16, (E)-4-amino-6-chloro-3-(2-chlorovinyl)-5-fluoropicolinic acid]	152 to 157 °C						80	10	75	90	100
C=C(F)c1c(C(=O)OC)nc(Cl)c(F)c1N [Compound 6, methyl 4-amino-6-chloro-5-fluoro-3-(1-fluorovinyl)picolinate]	98 to 100 °C						0	90	75	20	90
C=C(F)c1c(C(=O)O)nc(Cl)c(F)c1N [Compound 14, 4-amino-6-chloro-5-fluoro-3-(1-fluorovinyl)picolinic acid]							0	90	100	50	90
C=Cc1c(C(=O)O)nc(Cl)c(F)c1N [Compound 9, 4-amino-6-chloro-5-fluoro-3-vinylpicolinic acid]	164 to 166 °C						50		100	100	100
C=Cc1c(C(=O)O)nc(Cl)c(Cl)c1N [Compound 10, 4-amino-5,6-dichloro-3-vinylpicolinic acid]	190 to 193 °C (dec.)	20	100	100		100					
C=Cc1c(C(=O)OC)nc(Cl)c(Cl)c1N [Compound 1, methyl 4-amino-5,6-dichloro-3-vinylpicolinate]	96 to 97 °C	0	95	100	100	100					
C[Si](C)(C)/C=C/c1c(C(=O)O)nc(Cl)c(F)c1N [Compound 15, (E)-4-amino-6-chloro-5-fluoro-3-(2-(trimethylsilyl)vinyl)picolinic acid]	100 to 105 °C						0		65		80
C/C=C\c1c(C(=O)O)nc(Cl)c(F)c1N [Compound 12, (Z)-4-amino-6-chloro-5-fluoro-3-(prop-1-en-l-yl)picolinic acid]	141 to 143 °C						10	85	80	100	100
